Experiments:
TK-10 = experiment: cells; conditions: Homo sapiens, TK-10, 48 h
HOP-62 = experiment: NCI-60 SRB screen; conditions: HOP-62, 48 h
KM12 = experiment: NCI-60 SRB screen; conditions: KM12, 48 h
OVCAR-4 [1] = conditions: OVCAR-4, 48 h
[2] = test system: panel of 60 cancer cell lines; experiment: cells; conditions: Homo sapiens, read-out: MG_MID GI50
OVCAR-4 [3] = experiment: cells; conditions: Homo sapiens, OVCAR-4, 48 h
SNB-19 = experiment: NCI-60 SRB screen; conditions: SNB-19, 48 h
Breast cancer = experiment: cells; conditions: Homo sapiens
Prostate Cancer = experiment: cells; conditions: Homo sapiens, read-out: MG_MID GI50
PC-3 = conditions: PC-3, 48 h
IGROV1 = experiment: NCI-60 SRB screen
MOLT-4 = experiment: cells; conditions: Homo sapiens, MOLT-4, 48 h
OVCAR-8 = experiment: cells; conditions: Homo sapiens, OVCAR-8, 48 h
SK-MEL-2 = experiment: NCI-60 SRB screen; conditions: SK-MEL-2, 48 h
HCT-116 [4] = conditions: HCT-116, 48 h
SF-539 = conditions: SF-539, 48 h
CCRF-CEM = conditions: 48 h
M14 = experiment: NCI-60 SRB screen; conditions: M14, 48 h
HCT-15 = experiment: NCI-60 SRB screen; conditions: HCT-15, 48 h
SNB-75 = experiment: NCI-60 SRB screen; conditions: SNB-75, 48 h
DU-145 [5] = conditions: DU-145, 48 h
HCT-116 [6] = experiment: cells; conditions: Homo sapiens, HCT-116, 48 h
CNS cancer = CNS cancer subpanel
EKVX = experiment: NCI-60 SRB screen; conditions: 48 h
MCF-7 = experiment: [3H]-thymidine incorporation assay; type: cell-based; conditions: Homo sapiens, MCF7; MCF-7, 24 h of treatment
In short: (§1)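 Cells treated 24 h with compound at 1, 5, 10 μM (MCF-7) or 5, 15, 30 μM (MDA-MB-231), in triplicate, then pulsed with 0.5 μCi [3H]-thymidine for 4 h at 37 °C. TCA-precipitated, lysed cells counted by scintillation; uptake expressed as percent of control.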

MDA-MB-231 = experiment: [3H]-thymidine incorporation assay; type: cell-based; conditions: Homo sapiens; MDA-MB-231, 24 h of treatment
In short: as §1

DU-145 [7] = experiment: cells; conditions: Homo sapiens, DU-145, 48 h

## CCCCC(C(=O)O)N1C(=O)/C(=C/C=C/c2ccc([N+](=O)[O-])o2)SC1=S (stereo not shown) [6b, 2-((Z)-5-((E)-3-(5-nitrofuran-2-yl)allylidene)-4-oxo-2-thioxothiazolidin-3-yl)hexanoic acid]
TK-10
  GI50: 3.13 µM
TK-10; read-out: LC50, TK-10, 48 h
  CC50: 28.3 µM
HOP-62
  TGI: 5.20 µM
HOP-62; Homo sapiens
  GI50: 2.25 µM
KM12; Homo sapiens
  GI50: 1.63 µM
KM12
  TGI: 3.24 µM
OVCAR-4 [1]
  TGI: 19.0 µM
[2]
  GI50: 2.3 µM
OVCAR-4 [3]
  GI50: 6.12 µM
OVCAR-4 [3]; read-out: LC50, OVCAR-4, 48 h
  CC50: 44.5 µM
SNB-19; Homo sapiens
  GI50: 2.1 µM
SNB-19; Homo sapiens, read-out: LC50, SNB-19, 48 h
  CC50: 13.5 µM
SNB-19
  TGI: 4.88 µM
Breast cancer; read-out: MG_MID GI50
  GI50: 2.03 µM
Breast cancer; read-out: MG_MID LC50
  CC50: 26.7 µM
Prostate Cancer
  GI50: 3.29 µM
PC-3
  TGI: 11.3 µM
IGROV1; Homo sapiens, IGROV-1, 48 h, IGROV1, 48 h
  GI50: 2.16 µM
IGROV1; Homo sapiens, IGROV-1, 48 h, read-out: LC50, IGROV1, 48 h
  CC50: 18 µM
IGROV1; IGROV1, 48 h
  TGI: 4.86 µM
MOLT-4
  GI50: 3.28 µM
MOLT-4; read-out: LC50, MOLT-4, 48 h
  CC50: 90.2 µM
OVCAR-8
  GI50: 2.12 µM
OVCAR-8; read-out: LC50, OVCAR-8, 48 h
  CC50: 13.8 µM
SK-MEL-2; Homo sapiens
  GI50: 1.7 µM
SK-MEL-2; Homo sapiens, read-out: LC50, SK-MEL-2, 48 h
  CC50: 6.12 µM
SK-MEL-2
  TGI: 3.22 µM
HCT-116 [4]
  TGI: 4.05 µM
SF-539
  TGI: 4.17 µM
CCRF-CEM
  TGI: 10.2 µM
M14; Homo sapiens
  GI50: 1.83 µM
M14; Homo sapiens, read-out: LC50, M14, 48 h
  CC50: 7.66 µM
M14
  TGI: 3.75 µM
HCT-15
  TGI: 3.58 µM
HCT-15; Homo sapiens
  GI50: 1.71 µM
HCT-15; Homo sapiens, read-out: LC50, HCT-15, 48 h
  CC50: 7.47 µM
SNB-75; Homo sapiens
  GI50: 1.77 µM
SNB-75; Homo sapiens, read-out: LC50, SNB-75, 48 h
  CC50: 8.06 µM
SNB-75
  TGI: 3.77 µM
DU-145 [5]
  TGI: 10.2 µM
HCT-116 [6]
  GI50: 1.73 µM
CNS cancer
  MG_MID TGI: 4.58 µM
EKVX
  TGI: 5.74 µM
EKVX; Homo sapiens
  GI50: 2.26 µM
EKVX; Homo sapiens, read-out: LC50, EKVX, 48 h
  CC50: 19.7 µM
MCF-7
  IC50: 5.81 µM
MDA-MB-231
  IC50: 2.01 µM
DU-145 [7]
  GI50: 3.35 µM
DU-145 [7]; read-out: LC50, DU-145, 48 h
  CC50: 32.9 µM
